Measured values: patent publication US20050215543A1, “Methods of treating HIV infection” (priority 2004, published 2005)

Assays:
[1] = system: HIV-1 LAI; experiment: Drug susceptibility assay, MT-2 cells infected with HIV-1 LAI, MTS assay readout (samples involving non-nucleoside RT inhibitors); type: cell-based; settings: for EC50: Human immunodeficiency virus 1, MT2, 120 h, single drug, MT-2 cells, HIV-1 LAI, MOI 0.005, 5 days, MTS assay (non-nucleoside RT inhibitors); for Combination Indices at % HIV Inhibition (Confidence Interval) 50%: 50% HIV inhibition; for Combination Indices at % HIV Inhibition (Confidence Interval) 50% / Combination Indices at % HIV Inhibition (Confidence Interval) 75% / Combination Indices at % HIV Inhibition (Confidence Interval) 90%: MTS readout, 95% CI in parenthesis; for Combination Indices at % HIV Inhibition (Confidence Interval) 75%: 75% HIV inhibition; for Combination Indices at % HIV Inhibition (Confidence Interval) 90%: 90% HIV inhibition; for Overall Result: two-drug combination with Compound 1, all ratios and effect levels, MT-2/HIV-1 LAI, MTS assay
Experimental: (§1) Virus and cell lines. The T-cell lines, MT-2 and PM-1 were obtained through the AIDS Research and Reference Reagent Program, NIAID, and were contributed by Dr. D. Richman and Dr. R. Gallo, respectively. Both cell lines were cultured in RPMI 1640 medium supplemented with 10% fetal bovine serum, 2 mM L-glutamine and sub-cultured twice a week. The LAI strain of HIV-1 was obtained from the Fred Hutchinson Cancer Research Center, and the Bal strain was from NIH. Both virus stocks were amplified and titered in MT-2 cells (LAI) and PM-1 cells (Bal) using a virus infectivity assay.
(§2) Drug Susceptibility and Cytotoxicity Assays. For drug susceptibility assays, MT-2 cells were infected with HIV-1 LAI (or PM-1 cells with HIV-1 Bal) at an MOI of 0.005, and seeded into 96-well microtiter plates (0.1×10^6 cells/ml) containing serial dilutions of test compounds. […] Each drug ratio consisted of an array of 3-fold serial dilutions, and was performed in quadruplicate. The plates were incubated at 37° C./5% CO2. The MT-2 cells infected with HIV-1 LAI were incubated for 5 days. On day-five post-infection, 20 μl from each well was harvested and quantitated by a reverse transcriptase (RT) assay, or in samples involving non-nucleoside RT inhibitors, an MTS assay. The PM-1 cells infected with HIV-1 Bal and used for studying the combinations with CCR5 inhibitors were incubated for six days. On day-six post-infection, 20 μl from each well was harvested, 20- and 50-fold diluted and quantitated by p24 assay. Cytotoxicity assays were performed using uninfected cells, exposed to the same drug combinations, and incubated for six days. Cell viability was determined by an XTT assay. The CC50 values were calculated by using the exponential form of the median effect equation as mentioned below for calculation of EC50.
(§3) Analysis of Drug Combination Effects. For determination of CI values, drugs were diluted in a fixed ratio and multiple ratios were analyzed. The drug serial dilutions spanned a range of concentrations near the EC50 value of each compound, so that equivalent antiviral activities could be compared. Concentration-response curves were estimated for each individual drug and every combination using the median-effect equation. The equation was fit using a nonlinear regression routine (Proc Nlin) in PC SAS version 8.01 (SAS Institute Inc., SAS Version 8.01, Cary, N.C.: SAS Institute Inc., 1990).
(§4) In this equation, Fa stands for “fraction affected,” and represents the fraction of the viral load that has been inactivated. […] ED50 is drug concentration that is expected to reduce the amount of virus by 50%, and m is a parameter that reflects the slope of the concentration-response curve.
(§5) To assess antiviral effects of different drug combination treatments, combination indices (CIs) were calculated according to Chou and Rideout. The combination index was computed as CI=[D]1/[Dm]1+[D]2/[Dm]2
(§6) In this equation [Dm]1 and [Dm]2 are the concentrations of drugs that would individually produce a specific level of effect, while [D]1 and [D]2 are the concentrations of drugs in combination that would produce the same level of effect.
(§7) Theoretically, additivity is implied if the CI is equal to one, synergy if the CI is less than one, and antagonism if the CI is greater than one. […] At best, we can construct a range that contains the likely values for the CI, given the noise in the data. In this report, these ranges are reported in parentheses next to each point estimate of the CI. […] If the range fell entirely above 1.0, we would infer antagonistic behavior. If the range were to include 1.0, we would infer additivity.
(§8) In carrying out the combination experiments below, the EC50 for Compound 1 and each comparator compound was determined during the course of each study, and used in the subsequent data analysis.

[2] = system: HIV-1 LAI; experiment: microbe, parasite or virus in culture; settings: for EC50: Human immunodeficiency virus 1, MT2, 120 h; for Combination Indices at % HIV Inhibition (Confidence Interval) 50%: 50% HIV inhibition; for Combination Indices at % HIV Inhibition (Confidence Interval) 50% / Combination Indices at % HIV Inhibition (Confidence Interval) 75% / Combination Indices at % HIV Inhibition (Confidence Interval) 90%: 95% CI in parenthesis; for Combination Indices at % HIV Inhibition (Confidence Interval) 75%: 75% HIV inhibition; for Combination Indices at % HIV Inhibition (Confidence Interval) 90%: 90% HIV inhibition; for Overall Result: two-drug combination with Compound 1, all ratios and effect levels, MT-2/HIV-1 LAI, RT assay
Experimental: as §1, §2, §3, §4, §5, §6, §7, §8

[3] = combination with Compound 1, EC50 ratio 1:1
[4] = combination with Compound 1, EC50 ratio 1:2.5
[5] = combination with Compound 1, EC50 ratio 2.5:1
[6] = combination with Compound 1, EC50 ratio 1:1 (Compound 1:comparator)

SMILES | EC50 [1] | Combination Indices at % HIV Inhibition (Confidence Interval) 50% [1, 3] | Combination Indices at % HIV Inhibition (Confidence Interval) 75% [1, 3] | Combination Indices at % HIV Inhibition (Confidence Interval) 90% [1, 3] | Combination Indices at % HIV Inhibition (Confidence Interval) 50% [1, 4] | Combination Indices at % HIV Inhibition (Confidence Interval) 75% [1, 4] | Combination Indices at % HIV Inhibition (Confidence Interval) 90% [1, 4] | Combination Indices at % HIV Inhibition (Confidence Interval) 50% [1, 5] | Combination Indices at % HIV Inhibition (Confidence Interval) 75% [1, 5] | EC50 [2] | Combination Indices at % HIV Inhibition (Confidence Interval) 50% [2, 6] | Combination Indices at % HIV Inhibition (Confidence Interval) 75% [2, 3] | Combination Indices at % HIV Inhibition (Confidence Interval) 90% [2, 3] | Combination Indices at % HIV Inhibition (Confidence Interval) 50% [2, 4] | Combination Indices at % HIV Inhibition (Confidence Interval) 75% [2, 4] | Combination Indices at % HIV Inhibition (Confidence Interval) 90% [2, 4] | Combination Indices at % HIV Inhibition (Confidence Interval) 50% [2, 5] | Combination Indices at % HIV Inhibition (Confidence Interval) 75% [2, 5] | Combination Indices at % HIV Inhibition (Confidence Interval) 90% [2, 5] | Overall Result [2] | other results
CC(C)Nc1cccnc1N1CCN(C(=O)c2cc3cc(NS(C)(=O)=O)ccc3[nH]2)CC1 [Delavirdine, delavirdine] | 1.6 nM | 0.11 (0.00, 0.26) | 0.09 (0.02, 0.15) | 0.09 (0.00, 0.21) | 0.32 (0.20, 0.43) | 0.09 (0.08, 0.10) | 0.03 (0.02, 0.03) | 0.28 (0.22, 0.35) | 0.17 (0.14, 0.20) | – | – | – | – | – | – | – | – | – | – | – | Combination Indices at % HIV Inhibition (Confidence Interval) 90% [1, 5]: 0.16 (0.11, 0.35); Overall Result [1]: Synergistic; Overall Result ([1]; listed as delavirdine): strong synergistic effects
O=C1Nc2ccc(Cl)cc2[C@@](C#CC2CC2)(C(F)(F)F)O1 [Efavirenz, efavirenz] | 0.06 nM | 0.71 (0.50, 0.91) | 0.64 (0.38, 0.90) | 0.64 (0.22, 1.06) | 0.23 (0.17, 0.29) | 0.23 (0.17, 0.30) | 0.25 (0.12, 0.38) | 0.58 (0.45, 0.70) | 0.47 (0.32, 0.61) | – | – | – | – | – | – | – | – | – | – | – | Combination Indices at % HIV Inhibition (Confidence Interval) 90% [1, 5]: 0.46 (0.23, 0.69); Overall Result [1]: Synergistic; Overall Result ([1]; listed as efavirenz): strong synergistic effects
Cc1cn([C@H]2C=C[C@@H](CO)O2)c(=O)[nH]c1=O [Stavudine, stavudine] | – | – | – | – | – | – | – | – | – | 250 nM | 1.47 (1.16, 1.79) | 0.60 (0.42, 0.78) | 0.25 (0.13, 0.38) | 0.50 (0.37, 0.64) | 0.29 (0.18, 0.40) | 0.18 (0.07, 0.28) | 0.69 (0.47, 0.91) | 0.55 (0.30, 0.80) | 0.45 (0.12, 0.78) | Additive- | Overall Result ([2]; listed as stavudine): additive-synergistic
Nc1ccn([C@H]2CC[C@@H](CO)O2)c(=O)n1 [Zalcitabine, zalcitabine] | – | – | – | – | – | – | – | – | – | 110 nM | 0.55 (0.41, 0.70) | 0.57 (0.36, 0.77) | 0.59 (0.25, 0.92) | 0.87 (0.65, 1.08) | 0.66 (0.44, 0.89) | 0.51 (0.24, 0.78) | 0.68 (0.48, 0.89) | 0.64 (0.37, 0.90) | 0.59 (0.20, 0.98) | Synergistic | Overall Result ([2]; listed as zalcitabine): consistent synergy at all effective levels and concentration ratios
Cc1cn([C@H]2C[C@H](N=[N+]=[N-])[C@@H](CO)O2)c(=O)[nH]c1=O [Zidovudine, zidovudine] | – | – | – | – | – | – | – | – | – | 3 nM | 1.06 (0.85, 1.27) | 0.99 (0.72, 1.26) | 0.93 (0.53, 1.34) | 1.21 (1.01, 1.40) | 0.95 (0.74, 1.16) | 0.76 (0.50, 1.02) | 0.81 (0.69, 0.92) | 0.70 (0.56, 0.83) | 0.60 (0.42, 0.79) | Additive- | Overall Result ([2]; listed as zidovudine): additive to synergistic
